{
  "source": "patent US20260357349A1",
  "about": "“METHODS OF IDENTIFYING AND TREATING CANCER” (Agency for Science, Technology and Research, priority 2022, published 2026)",
  "key": {"IκBα / NF-κB": {"tested_on": "IκBα / NF-κB", "conditions": "mechanism; cited from earlier work"}, "metastatic RCC": {"tested_on": "metastatic RCC", "conditions": "monotherapy, cited from earlier work"}, "NCC432 cells": {"tested_on": "NCC432 cells", "test": "Colony formation, NCC432 isogenic cells", "type": "cell-based, human", "conditions": "NCC432, a week", "protocol": "(§1) Colony formation of parental (WT) or PBRM1 knockout (KO) 786-O cells expressing shRNA against non-targeting control (NC), RELA, or NFKB1 cultured with a) 10% or b) 2% serum. c) Gene expression changes of NF-κB target genes in 786-O cells treated with 0.006 μM bortezomib (BTZ) or 0.6 µM Bay 11-7085 for 24 hours (n=3 technical replicates). * p-value<0.05 (two-sided t-test). […] A positive log fold change refers to gain in bortezomib treatment over DMSO. g) Colony formation of 786-O isogenic cells and h) NCC432 isogenic cells treated with bortezomib for a week. Tumor formation of isogenic 786-O cells (i) and NCC432 cells (j) treated with PBS control or 0.5 mg/kg bortezomib (BTZ) in NSG mice. (n=10 tumors per group for 786-O, and n=16 tumors for NCC432 PBS EV group and 12 tumors for NCC432 PBS PBRM1 group and 14 tumors for both NCC432 EV and PBRM1 BTZ groups). Data are presented as mean values+/−SEM. k) Model for the study.\nIn 6 wells, 1,000 786-O cells or 2,500 NCC432 cells were seeded and treated with DMSO control or increasing concentration of drugs for 7 days and stained with crystal violet. For drug screening, we used SGC epigenetic probe collection. For RNA-seq with bortezomib treatment, 2×10^5 786-O cells were treated with DMSO or 0.005 μM bortezomib and harvested 9 hours after treatment for RNA extraction. […]"}, "[1]": {"tested_on": "NF-κB pathway (786-O cells)", "test": "RNA-seq after bortezomib, 786-O", "type": "cell-based, human", "protocol": "as §1\nIn 6 wells, 1,000 786-O cells or 2,500 NCC432 cells were seeded and treated with DMSO control or increasing concentration of drugs for 7 days and stained with crystal violet. For drug screening, we used SGC epigenetic probe collection. For RNA-seq with bortezomib treatment, 2×10^5 786-O cells were treated with DMSO or 0.005 μM bortezomib and harvested 9 hours after treatment for RNA extraction. For RT-qPCR with SMARCA2/4 ATPase inhibitor treatment, 1×10^5 786-O cells were treated with DMSO or 0.01 μM SMARCA2/4 ATPase inhibitor (Targetmol, T10616, CAS: 2270879-17-7) for 3 days before RNA extraction.\nTotal RNA was extracted using the Qiagen RNeasy Mini kit. RNA-seq libraries were prepared using Illumina Tru-Seq Stranded Total RNA kit protocol, according to the manufacturer's instructions (Illumina, San Diego, California, USA). […] Sequencing was performed on an Illumina HiSeq4000 sequencer with the paired-end 150 bp read option.\nRNA-Seq Pathway Analysis RNA-seq data were mapped to hg19 (h117d5) using STAR, with GENCODE annotation (gencode.v19.annotation.gtf) and recommended settings from STAR manual. Gene expression levels were quantified with STAR. […]"}, "786-O cells": {"tested_on": "786-O cells", "test": "Colony formation, 786-O isogenic cells", "type": "cell-based, human", "protocol": "as §1\nData are presented as median+/−25%. […] Data are presented as mean values+/−SD. e) Tornado plots of RELA and SMARCA4 ChIP-seq signals in parental 786-0 or PBRM1-KO 786-O cells treated with DMSO or 0.005 μM bortezomib for 9 hours. f) Kaplan-Meier curves of NSG mice bearing 786-O isogenic cells treated with PBRM1 control or 0.5 mg/kg bortezomib (WT: n=10 PBS arm, median survival=39 days; n=10 bortezomib arm, median survival=52 days, HR=4.1, p=3E-6, log rank test; KO: n=10 PBS arm, median survival=35 days, n=10 bortezomib arm, median survival=66 days, HR=4.1, p=3E-6, log rank test). g) Kaplan-Meier curves of NSG mice bearing NCC432 isogenic cells treated with PBRM1 control or 0.5 mg/kg bortezomib (EV: n=16 PBS arm, median survival=42 days; n=14 bortezomib arm, median survival=49 days, HR=2.5, p=0.0009, log rank test; PBRM1: n=12 PBS arm, median survival=55 days; n=14 bortezomib arm, median survival=58 days, HR=1.2, p=0.5, log rank test). h) 786-O PBRM1 WT or KO cells were screened against the high-specific SGC epigenetic probe collection and cell viability was measured by colony formation after 1 week of treatment relative to DMSO control. […]"}, "NCC432 tumors": {"tested_on": "NCC432 tumors", "test": "Tumor formation and survival of NSG mice bearing NCC432 isogenic cells", "type": "in vivo", "protocol": "as §1\nData are presented as median+/−25%. Lower whisker is smallest observation greater than or equal to 25% quantile-1.5*interquantile range (IQR). Upper whisker represents the largest observation less than or equal to 75%+1.5*IQR. Amount of normalized RELA protein in the c) input or d) co-immunoprecipitated with SMARCA4 from 3 independent runs. Data are presented as mean values+/−SD. e) Tornado plots of RELA and SMARCA4 ChIP-seq signals in parental 786-0 or PBRM1-KO 786-O cells treated with DMSO or 0.005 μM bortezomib for 9 hours. f) Kaplan-Meier curves of NSG mice bearing 786-O isogenic cells treated with PBRM1 control or 0.5 mg/kg bortezomib (WT: n=10 PBS arm, median survival=39 days; n=10 bortezomib arm, median survival=52 days, HR=4.1, p=3E-6, log rank test; KO: n=10 PBS arm, median survival=35 days, n=10 bortezomib arm, median survival=66 days, HR=4.1, p=3E-6, log rank test). g) Kaplan-Meier curves of NSG mice bearing NCC432 isogenic cells treated with PBRM1 control or 0.5 mg/kg bortezomib (EV: n=16 PBS arm, median survival=42 days; n=14 bortezomib arm, median survival=49 days, HR=2.5, p=0.0009, log rank test; PBRM1: n=12 PBS arm, median survival=55 days; n=14 bortezomib arm, median survival=58 days, HR=1.2, p=0.5, log rank test). h) 786-O PBRM1 WT or KO cells were screened against the high-specific SGC epigenetic probe collection and cell viability was measured by colony formation after 1 week of treatment relative to DMSO control.\nAll animal studies were conducted in compliance with animal protocols approved by Institutional Animal Care and Use Committee (IACUC) of Singapore. Female NOD/SCID mice (8-10 week old) were implanted subcutaneously with 1×10^6 786-0 cells with either wildtype PBRM1 or PBRM1 knocked out subcutaneously. Male NSG mice (The Jackson laboratory) were implanted with 1×10^6 A498, NCC2112 or NCC432 with or without PBRM1. Tumor volume was monitored every 3-4 days. Tumor volume was calculated as (length×width×width)×π/6. Animals were sacrificed when the tumor volume exceeded 2000 mm^3.\nBortezomib […] was given twice weekly (day1, day 4) to male NSG mice (The Jackson laboratory) via the tail vein. Tumor volume and body weight were monitored every 3-4 days."}, "[2]": {"conditions": "phase II trial of 37 patients with metastatic RCC"}},
  "data": [
    {"compound": "CC(C)C[C@H](NC(=O)[C@H](Cc1ccccc1)NC(=O)c1cnccn1)B(O)O", "note": "[bortezomib]", "values": [
      {"measurement": "effect on IκBα and NF-κB DNA binding", "setting": "IκBα / NF-κB", "result": "induces nuclear translocation and accumulation of IκBα which then associates with nuclear NF-κB and inhibits its DNA binding activity"},
      {"measurement": "ranking of RCC response amongst solid tumors", "setting": "metastatic RCC; literature survey of 32 trials", "result": "most responsive tumor type amongst all solid tumors"},
      {"measurement": "partial response", "setting": "metastatic RCC; [2]", "result": 4, "unit": "patients"},
      {"measurement": "stable disease", "setting": "metastatic RCC; [2]", "result": 14, "unit": "patients"},
      {"measurement": "reduction of colony formation, PB1-deficient vs PB1-proficient isogenic cells", "setting": "NCC432 cells", "result": "preferential reduction of colony formation"},
      {"measurement": "effect on NF-κB pathway by global transcriptomics", "setting": "[1]; 0.005 μM bortezomib, 9 hours, RNA-seq", "result": "downregulation of the NF-κB pathway"},
      {"measurement": "effect on NF-κB activation (summary)", "setting": "[1]; Example 2 summary", "result": "reverses NF-κB activation"},
      {"measurement": "additional targets upregulated by PB1 loss that were suppressed", "setting": "[1]; in addition to RELA targets, 786-O", "result": 127, "unit": "targets"},
      {"measurement": "reducing colony formation", "setting": "786-O cells; 786-O with and without PBRM1, vs DMSO", "result": "reducing colony formation"},
      {"measurement": "reduction of colony formation, PB1-deficient vs PB1-proficient isogenic cells", "setting": "786-O cells; 786-O, a week", "result": "preferential reduction of colony formation"},
      {"measurement": "survival, mice bearing PB1-deficient vs PB1-proficient cells", "setting": "NCC432 tumors; 0.5 mg/kg bortezomib", "result": "survived for a longer duration"},
      {"measurement": "tumor response, PB1-deficient vs PB1-proficient isogenic cells", "setting": "NCC432 tumors; 0.5 mg/kg bortezomib, NSG mice", "result": "responded better"},
      {"measurement": "median survival", "setting": "NCC432 tumors; NCC432 EV, 0.5 mg/kg bortezomib arm n=14, PBS arm 42 days", "result": 49, "unit": "days"},
      {"measurement": "HR", "setting": "NCC432 tumors; NCC432 EV, bortezomib vs PBS, p=0.0009, log rank test", "result": 2.5},
      {"measurement": "median survival", "setting": "NCC432 tumors; NCC432 PBRM1, 0.5 mg/kg bortezomib arm n=14, PBS arm 55 days", "result": 58, "unit": "days"},
      {"measurement": "HR", "setting": "NCC432 tumors; NCC432 PBRM1, bortezomib vs PBS, p=0.5, log rank test", "result": 1.2}
    ]}
  ]
}
